{
  "source": "the supplement of paper PMC10733146",
  "experiment_in_all_cases": "viability relative to DMSO control (fraction); higher = less drug effect (more viable cells)",
  "conditions_in_all_cases": "48 h",
  "key": {"[1]": {"tested_on": "primary ALL patient cells (S048)", "summary_of_the_method": "(§1)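 Compounds were pre-plated at five concentrations, one well each, in 384-well plates, and primary mononuclear tumour cells were plated on them at 4 × 10^4 cells per well. The cells, fresh or cryopreserved, had been Ficoll-isolated from blood or bone marrow or taken from processed lymph node. After 48 h at 37 °C and 5% CO2 in RPMI-1640 with penicillin/streptomycin, L-glutamine and human serum, viability was read as CellTiter-Glo luminescence relative to the median of 16 inner DMSO wells.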"}, "[2]": {"tested_on": "primary ALL patient cells (S088)", "summary_of_the_method": "as §1"}, "[3]": {"tested_on": "primary AML patient cells (S011)", "summary_of_the_method": "as §1"}, "[4]": {"tested_on": "primary AML patient cells (S012)", "summary_of_the_method": "as §1"}, "[5]": {"tested_on": "primary AML patient cells (S017)", "summary_of_the_method": "as §1"}, "[6]": {"tested_on": "primary AML patient cells (S021)", "summary_of_the_method": "as §1"}, "[7]": {"tested_on": "primary AML patient cells (S056)", "summary_of_the_method": "as §1"}, "[8]": {"tested_on": "primary AML patient cells (S060)", "summary_of_the_method": "as §1"}, "[9]": {"tested_on": "primary AML patient cells (S081)", "summary_of_the_method": "as §1"}, "[10]": {"tested_on": "primary AML patient cells (S085)", "summary_of_the_method": "as §1"}, "[11]": {"tested_on": "primary B-PLL patient cells (S016)", "summary_of_the_method": "as §1"}, "[12]": {"tested_on": "primary BL patient cells (S005)", "summary_of_the_method": "as §1"}, "[13]": {"tested_on": "primary CLL patient cells (S031)", "summary_of_the_method": "as §1"}, "[14]": {"tested_on": "primary CLL patient cells (S043)", "summary_of_the_method": "as §1"}, "[15]": {"tested_on": "primary FL patient cells (S022)", "summary_of_the_method": "as §1"}, "[16]": {"tested_on": "primary FL patient cells (S087)", "summary_of_the_method": "as §1"}, "[17]": {"tested_on": "primary MCL patient cells (S053)", "summary_of_the_method": "as §1"}, "[18]": {"tested_on": "primary MCL patient cells (S063)", "summary_of_the_method": "as §1"}, "[19]": {"tested_on": "primary MCL patient cells (S068)", "summary_of_the_method": "as §1"}},
  "data": [
    {"smiles": "CCN1CCN(Cc2ccc(Nc3ncc(F)c(-c4cc(F)c5nc(C)n(C(C)C)c5c4)n3)nc2)CC1", "values": [
      {"measurement": "viability", "setting": "[1]; 0.024 µM", "result": 0.546},
      {"measurement": "viability", "setting": "[1]; 0.12 µM", "result": 0.443},
      {"measurement": "viability", "setting": "[1]; 0.6 µM", "result": 0.263},
      {"measurement": "viability", "setting": "[1]; 3 µM", "result": 0.0396},
      {"measurement": "viability", "setting": "[1]; 15 µM", "result": 0.00487},
      {"measurement": "viability", "setting": "[2]; 0.024 µM", "result": 0.616},
      {"measurement": "viability", "setting": "[2]; 0.12 µM", "result": 0.625},
      {"measurement": "viability", "setting": "[2]; 0.6 µM", "result": 0.517},
      {"measurement": "viability", "setting": "[2]; 3 µM", "result": 0.169},
      {"measurement": "viability", "setting": "[2]; 15 µM", "result": 0.012},
      {"measurement": "viability", "setting": "[3]; 0.024 µM", "result": 1.74},
      {"measurement": "viability", "setting": "[3]; 0.12 µM", "result": 1.08},
      {"measurement": "viability", "setting": "[3]; 0.6 µM", "result": 1.09},
      {"measurement": "viability", "setting": "[3]; 3 µM", "result": 0.0537},
      {"measurement": "viability", "setting": "[3]; 15 µM", "result": 0.01},
      {"measurement": "viability", "setting": "[4]; 0.024 µM", "result": 1.11},
      {"measurement": "viability", "setting": "[4]; 0.12 µM", "result": 1.04},
      {"measurement": "viability", "setting": "[4]; 0.6 µM", "result": 1.07},
      {"measurement": "viability", "setting": "[4]; 3 µM", "result": 0.986},
      {"measurement": "viability", "setting": "[4]; 15 µM", "result": 0.902},
      {"measurement": "viability", "setting": "[5]; 0.024 µM", "result": 1.01},
      {"measurement": "viability", "setting": "[5]; 0.12 µM", "result": 1.14},
      {"measurement": "viability", "setting": "[5]; 0.6 µM", "result": 1.1},
      {"measurement": "viability", "setting": "[5]; 3 µM", "result": 0.73},
      {"measurement": "viability", "setting": "[5]; 15 µM", "result": 0.179},
      {"measurement": "viability", "setting": "[6]; 0.024 µM", "result": 1.01},
      {"measurement": "viability", "setting": "[6]; 0.12 µM", "result": 0.962},
      {"measurement": "viability", "setting": "[6]; 0.6 µM", "result": 1.22},
      {"measurement": "viability", "setting": "[6]; 3 µM", "result": 0.377},
      {"measurement": "viability", "setting": "[6]; 15 µM", "result": 0.0751},
      {"measurement": "viability", "setting": "[7]; 0.024 µM", "result": 0.703},
      {"measurement": "viability", "setting": "[7]; 0.12 µM", "result": 0.546},
      {"measurement": "viability", "setting": "[7]; 0.6 µM", "result": 0.444},
      {"measurement": "viability", "setting": "[7]; 3 µM", "result": 0.136},
      {"measurement": "viability", "setting": "[7]; 15 µM", "result": 0.0316},
      {"measurement": "viability", "setting": "[8]; 0.024 µM", "result": 1.08},
      {"measurement": "viability", "setting": "[8]; 0.12 µM", "result": 1.01},
      {"measurement": "viability", "setting": "[8]; 0.6 µM", "result": 0.946},
      {"measurement": "viability", "setting": "[8]; 3 µM", "result": 0.534},
      {"measurement": "viability", "setting": "[8]; 15 µM", "result": 0.112},
      {"measurement": "viability", "setting": "[9]; 0.024 µM", "result": 0.929},
      {"measurement": "viability", "setting": "[9]; 0.12 µM", "result": 0.868},
      {"measurement": "viability", "setting": "[9]; 0.6 µM", "result": 0.833},
      {"measurement": "viability", "setting": "[9]; 3 µM", "result": 0.537},
      {"measurement": "viability", "setting": "[9]; 15 µM", "result": 0.174},
      {"measurement": "viability", "setting": "[10]; 0.024 µM", "result": 0.895},
      {"measurement": "viability", "setting": "[10]; 0.12 µM", "result": 1.01},
      {"measurement": "viability", "setting": "[10]; 0.6 µM", "result": 1.22},
      {"measurement": "viability", "setting": "[10]; 3 µM", "result": 0.265},
      {"measurement": "viability", "setting": "[10]; 15 µM", "result": 0.0115},
      {"measurement": "viability", "setting": "[11]; 0.024 µM", "result": 0.997},
      {"measurement": "viability", "setting": "[11]; 0.12 µM", "result": 1.09},
      {"measurement": "viability", "setting": "[11]; 0.6 µM", "result": 0.984},
      {"measurement": "viability", "setting": "[11]; 3 µM", "result": 0.505},
      {"measurement": "viability", "setting": "[11]; 15 µM", "result": 0.0112},
      {"measurement": "viability", "setting": "[12]; 0.024 µM", "result": 1.01},
      {"measurement": "viability", "setting": "[12]; 0.12 µM", "result": 1.61},
      {"measurement": "viability", "setting": "[12]; 0.6 µM", "result": 0.924},
      {"measurement": "viability", "setting": "[12]; 3 µM", "result": 0.725},
      {"measurement": "viability", "setting": "[12]; 15 µM", "result": 0.374},
      {"measurement": "viability", "setting": "[13]; 0.024 µM", "result": 0.841},
      {"measurement": "viability", "setting": "[13]; 0.12 µM", "result": 0.752},
      {"measurement": "viability", "setting": "[13]; 0.6 µM", "result": 0.771},
      {"measurement": "viability", "setting": "[13]; 3 µM", "result": 0.238},
      {"measurement": "viability", "setting": "[13]; 15 µM", "result": 0.00593},
      {"measurement": "viability", "setting": "[14]; 0.024 µM", "result": 0.893},
      {"measurement": "viability", "setting": "[14]; 0.12 µM", "result": 1.05},
      {"measurement": "viability", "setting": "[14]; 0.6 µM", "result": 0.936},
      {"measurement": "viability", "setting": "[14]; 3 µM", "result": 0.58},
      {"measurement": "viability", "setting": "[14]; 15 µM", "result": 0.24},
      {"measurement": "viability", "setting": "[15]; 0.024 µM", "result": 1.12},
      {"measurement": "viability", "setting": "[15]; 0.12 µM", "result": 1.01},
      {"measurement": "viability", "setting": "[15]; 0.6 µM", "result": 1.06},
      {"measurement": "viability", "setting": "[15]; 3 µM", "result": 0.616},
      {"measurement": "viability", "setting": "[15]; 15 µM", "result": 0.00982},
      {"measurement": "viability", "setting": "[16]; 0.024 µM", "result": 1.01},
      {"measurement": "viability", "setting": "[16]; 0.12 µM", "result": 0.934},
      {"measurement": "viability", "setting": "[16]; 0.6 µM", "result": 0.962},
      {"measurement": "viability", "setting": "[16]; 3 µM", "result": 0.763},
      {"measurement": "viability", "setting": "[16]; 15 µM", "result": 0.0109},
      {"measurement": "viability", "setting": "[17]; 0.024 µM", "result": 0.896},
      {"measurement": "viability", "setting": "[17]; 0.12 µM", "result": 0.737},
      {"measurement": "viability", "setting": "[17]; 0.6 µM", "result": 0.565},
      {"measurement": "viability", "setting": "[17]; 3 µM", "result": 0.144},
      {"measurement": "viability", "setting": "[17]; 15 µM", "result": 0.0105},
      {"measurement": "viability", "setting": "[18]; 0.024 µM", "result": 1.08},
      {"measurement": "viability", "setting": "[18]; 0.12 µM", "result": 0.99},
      {"measurement": "viability", "setting": "[18]; 0.6 µM", "result": 0.951},
      {"measurement": "viability", "setting": "[18]; 3 µM", "result": 0.605},
      {"measurement": "viability", "setting": "[18]; 15 µM", "result": 0.00904},
      {"measurement": "viability", "setting": "[19]; 0.024 µM", "result": 0.836},
      {"measurement": "viability", "setting": "[19]; 0.12 µM", "result": 0.934},
      {"measurement": "viability", "setting": "[19]; 0.6 µM", "result": 1.09},
      {"measurement": "viability", "setting": "[19]; 3 µM", "result": 0.0754},
      {"measurement": "viability", "setting": "[19]; 15 µM", "result": 0.0119}
    ]}
  ]
}
